From patent publication US20190275022A1, “METHODS, COMPOSITIONS, AND COMPOUNDS FOR TREATMENT OF DERMATOLOGICAL AND OCULAR CONDITIONS” (Allergan, Inc., priority 2016, published 2019)
Where two headings read alike, the source gives them in different places.

Legend:
[1] = test system: lipopolysaccharide (LPS)-induced ocular inflammation model; experiment: LPS-induced ocular inflammation model, aqueous humor cells and protein, survival; type: in vivo; conditions: for % Efficacy, Cell % Inhibition / % Efficacy, Protein % Inhibition: aqueous humor
Experimental: Male Lewis rats, weighing about 250 to 270 grams, were purchased from Charles River and used for all studies. Lipopolysaccharide (LPS) was made fresh in sterile saline (1 mg/ml), kept on ice, and administered by footpad injection at a total dose of 100 μg (100 μl) per animal. Twenty-four hours later, at the time of maximal inflammation in this model, the rats were euthanized by CO2 inhalation. Aqueous humor was collected and analyzed for protein concentration and cell counts.
For the calculation of the percentage of cell inhibition, the number of cells in treatment group were divided by the average number of cells in vehicle group times 100. For the calculation of the percentage of protein inhibition, the amount protein in treatment group was divided by the average protein in the vehicle group times 100.
Aqueous humor was collected from both eyes by anterior chamber puncture, performed under an operating microscope, using a 30-gauge needle and 25 μl Hamilton syringe (Catalog number 1702). aqueous humor from both eyes was pooled and kept on ice until further analysis.
Protein determination was carried out using a standard Bradford method. Cell counting was done by using either a hemocytometer or an automated cell counter (BioRad TC10).

[2] = test system: Oxazolone (OXA) dermatitis in SKH1-E hairless mice; experiment: Oxazolone-induced dermatitis model, topical or oral treatment, SCORAD and resolved lesions; type: in vivo; conditions: for day of statistically significant improvement in SCORAD clinical scores: topical, vs. vehicle
Experimental: Female SKH1-E hairless mice (Charles River) weighing approximately 25 g at 2-3 months of age were used in the following study. For model induction, the mice were sensitized on Day −7 (minus seven) by topical application of 50 μl of 5% Oxazolone (OXA) solubilized in ethanol on the hind flank. Dermatitis was elicited by repeated topical challenges with 50 μl of 0.1% Oxazolone every other day until the end of the study.
For administration of the test compounds, the test compounds were solubilized in a 70% ethanol/30% DMSO vehicle solution and kept at 4° C. Beginning on Day 0, the test compounds were administered twice daily (AM/PM) by topical application (50 μl volume) for 12 days. Betamethasone (0.12%) was used as a positive control and dosed once daily in the AM. Test article dosing and topical challenges were separated by at least 4 hours and all compounds were masked to investigators.
For clinical assessment, the degree of dermatitis was graded on a SCORAD (scoring atopic dermatitis) based scoring system of 0-3 (with 0=no symptoms, 1=Mild, 2=Moderate, 3=Severe) prior to challenge by a masked investigator.
(§1) For tissue collection, on the day of necropsy, animals were euthanized at 2 hours post final dose via CO2 inhalation with death verified by cervical dislocation. Whole blood was collected via cardiac puncture (˜250 μl) in EDTA/K^+ treated tubes for plasma analysis of drug concentrations. A rectangular strip of skin from the left side of treatment back area was collected for hematoxylin-eosin (H&E) stain. Prior to placing tissue in 10% formalin, the skin thickness was measured using a calibrated caliper (mm). Three 8 mm tissue punches were then collected from the right side of the treatment area and stored at −80° C. for cytokine protein (LUMINEX) or gene expression assays.

PMBC TNF = conditions: data from literature; read-out: PMBC TNF Inhib. IC50; cited from earlier work
human PDE4B2 = human PDE4B2 (Homo sapiens, UniProt Q07343); experiment: Phosphodiesterase assay, recombinant human PDE4B2 ([3H]cAMP hydrolysis); type: biochemical
Experimental: A phosphodiesterase assay was performed using recombinant human PDE expressed in a baculoviral system.
The assay consisted of a two-step procedure. Tritium-labeled cyclic AMP was hydrolyzed to 5′-AMP by phosphodiesterase. The 5′-AMP was then further hydrolyzed to adenosine by nucleotidase in snake venom. An anion-exchange resin bound all charged nucleotides and left [^3H]adenosine as the only labeled compound to be counted by liquid scintillation.
All compounds were tested at a 10 μM starting concentration with a 1 in 3, 8 point IC50. […] The IC50 of each compound and the standard inhibitor (Rolipram) was determined. The standard inhibitor value was compared to historical assay data to ensure that it was within an acceptable range.

[3] = Plasma drug concentration after topical dosing in the dermatitis model (LC-MS/MS); type: in vivo
Experimental: as §1
The whole-blood samples collected in Example 2 were analyzed for drug concentrations. In particular, plasma samples were extracted by protein precipitation with acetonitrile and analyzed for drug concentrations by the bioanalytical laboratory using liquid chromatography tandem mass spectrometry (LC-MS/MS). Propranolol (200 ng/mL) was used as an internal standard for the extraction procedure. Working standards were prepared by series dilution (0.5 ng/mL) into acetonitrile from a stock solution of 10 ug/mL. All samples were analyzed using the API 5000 LC-MS/MS system in 0.1% formic acid in water.

plaque psoriasis = experiment: Example of treatment of plaque psoriasis (patient case); type: in vivo, human; conditions: topical up to three times a day; after 1 to 4 months
Source text: A person presents with erythematous plaques covered with thick, silvery, shiny scales on the extensor surfaces of their elbows and knees. After a clinical evaluation, the patient is diagnosed with plaque psoriasis. The patient is prescribed a pharmaceutical composition containing an effective amount of the compound of Formula I with instructions to apply the composition topically to the plaques up to three times a day.

rosacea = experiment: Example of treatment of rosacea (patient case); type: in vivo, human; conditions: topical one or twice a day; after about two days
Source text: A person presents with visible facial erythema and edema with telangiectases and visible papules and pustules resembling acne. […] Upon clinical examination, the patient is diagnosed with rosacea in its inflammatory phase. The patient is prescribed a topical composition comprising an effective amount of the compound of Formula I and instructed to apply the composition to the affected areas one or twice a day.

dry eye disease = experiment: Example of treatment of dry eye disease (patient case); type: in vivo, human; conditions: eye drops once a day; after about 1 to 2 months
Source text: A person presents with a history of having gritty, itchy and burning sensations in the both eyes which was previously generally diagnose as dry eye and has been treated with artificial tear drops applied topically to the eye as needed. The patient complains that the artificial tear solutions require too many applications per day. Medical evaluation of the patient results in the identification of the patient's dry eye disease as being dry eye disease where tear production is presumed to be suppressed due to ocular inflammation associated with the dry eye disease. The patient is prescribed eye drops containing an effective amount of the compound of Formula I with instructions to apply medication once a day.

[4] = test system: pruritus, atopic dermatitis; experiment: Example of treatment of pruritus / atopic dermatitis (patient case); type: in vivo, human; conditions: topical cream once a day
Source text: A person presents with a history of chronic relapsing atopic dermatitis (eczema), with severe itching, beginning. Their rash is characterized by red, itchy eruptions on cheeks and legs. Patient's parents stated that during a flare-up child is irritable at home and severe scratching disrupts sleep at night. Patient also feels very self-conscious of rash and is socially withdrawn at school during a flare-up. History of treatment have included lukewarm soaking baths and the use of over the counter emollients and creams. Topical calcineurin inhibitors were reported to exacerbate pruritus. The patient is prescribed a topical cream of the compound of Formula I with instructions to apply medication once day.

Oral bio-availability = conditions: in vivo
[5] = 0.01-0.5 mg/kg subcutaneously, dose dependent
[6] = human PDE4B2, read-out: Enzymatic IC50

Sequence of human PDE4B2 (Q07343 1-564 isoform Q07343-2): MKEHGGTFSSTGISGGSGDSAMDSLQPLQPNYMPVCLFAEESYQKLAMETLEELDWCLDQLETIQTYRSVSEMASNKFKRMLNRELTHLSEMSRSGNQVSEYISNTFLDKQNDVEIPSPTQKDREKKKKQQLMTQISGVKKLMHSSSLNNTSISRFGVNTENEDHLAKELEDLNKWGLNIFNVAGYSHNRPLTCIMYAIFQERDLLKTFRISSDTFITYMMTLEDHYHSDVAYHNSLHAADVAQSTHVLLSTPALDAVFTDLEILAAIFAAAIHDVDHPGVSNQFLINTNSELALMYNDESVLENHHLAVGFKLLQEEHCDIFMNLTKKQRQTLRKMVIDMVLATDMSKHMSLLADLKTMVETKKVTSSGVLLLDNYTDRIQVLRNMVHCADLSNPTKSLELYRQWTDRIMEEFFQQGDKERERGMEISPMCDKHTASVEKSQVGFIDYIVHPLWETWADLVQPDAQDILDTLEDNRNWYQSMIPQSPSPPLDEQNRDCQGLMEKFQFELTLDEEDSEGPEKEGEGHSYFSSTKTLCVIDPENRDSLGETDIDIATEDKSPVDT

## CCCNC(=O)COc1c(C(=O)Cc2c(Cl)cncc2Cl)ccc(OC)c1OC
[1]; systemic dose 1.0 mg/kg
  % Survival: 100%
  % Efficacy, Cell % Inhibition: 67%
  % Efficacy, Protein % Inhibition: 29%

## N#Cc1ccc(Oc2ccc3c(c2)COB3O)cc1 [AN-2728]
[2]
  day of statistically significant improvement in SCORAD clinical scores: ≥ 9 days
PMBC TNF
  IC50: 170 nM
Human PDE4B2
  IC50: 26 nM

## CS(=O)(=O)Nc1ccc(C(=O)O[C@@H](Cc2c(Cl)c[n+]([O-])cc2Cl)c2ccc(OC(F)F)c(OCC3CC3)c2)cc1OCC1CC1 [Compound A]
[3]; mouse, in vivo, delivered topically to the skin, 2 hours post final dose, read-out: plasma concentrations
  concentration at 2 h: < 5 ng/mL
[3]; topical 0.01%, 8 of the 10 animals
  plasma concentrations: below quantifiable limits
PDE4 versus other PDEs
  selectivity for PDE4 versus other PDEs: greater than 50 fold
Plaque psoriasis
  psoriatic plaques: almost completely disappeared
[2]; topical 0.01-1% w/v, compared to AN-2728
  reduction of SCORAD clinical scores earlier than benchmark AN-2728: 4 days
[2]
  day of statistically significant improvement in SCORAD clinical scores: ≤ 5 days
[2]; topically applied at 0.01%
  animals with resolved lesions: approximately 60%
[2]; topically applied at 1%
  animals with resolved lesions: approximately 90%
[1]; [5]
  percentage of cells in the aqueous humor: significantly reduced
  percentage of protein in the aqueous humor: significantly reduced
[1]; systemic dose 0.1 mg/kg
  % Survival: 100%
  % Efficacy, Cell % Inhibition: 95%
  % Efficacy, Protein % Inhibition: 67%
rosacea
  rosacea affected areas: noticeable clearing of the affected areas
PMBC TNF
  IC50: 0.03 nM
Dry eye disease
  gritty, itchy and burning sensations: significant reduction
  tear production: enough of an increase in tear production that the artificial tear drops are needed much less frequently
[4]; after approximately 3 weeks
  redness and eruptions on the skin: significant reduction
[4]; within the first week
  scratching: noticeable reduction in scratching
Oral bio-availability
  oral bio-availability: does not show any oral bio-availability
Human PDE4B2; [6]
  IC50: 0.04 nM

## COc1cccc(Nc2c(C(N)=O)cnc3c(C)cc(S(=O)(=O)c4cccc(C(=O)N(C)C)c4)cc23)c1 [GSK-256066]
[1]; rat, in vivo
  safety in the ocular inflammation model: resulted in death of the animals
[1]; systemic dose 1.0 mg/kg
  % Survival: 0%
PMBC TNF
  IC50: 0.01 nM
Human PDE4B2; [6]
  IC50: 0.007 nM

## CCOc1cc([C@@H](CS(C)(=O)=O)N2C(=O)c3cccc(NC(C)=O)c3C2=O)ccc1OC [apremilast]
[2]; topically applied at 1%
  animals with resolved lesions: approximately 40%
PMBC TNF
  IC50: 110 nM

## O=C(Nc1c(Cl)cncc1Cl)c1ccc(OC(F)F)c(OCC2CC2)c1 [drawing 21]
[1]; systemic dose 0.3 mg/kg
  % Survival: 100%
  % Efficacy, Cell % Inhibition: 97%
  % Efficacy, Protein % Inhibition: 77%

## CCOc1cc([C@@H](CS(C)(=O)=O)N2C(=O)c3cccc(NC(C)=O)c3C2=O)ccc1OC [drawing 22]
[1]; systemic dose 10.0 mg/kg
  % Survival: 100%
  % Efficacy, Cell % Inhibition: 94%
  % Efficacy, Protein % Inhibition: 58%

## N#Cc1ccc(Oc2ccc3c(c2)COB3O)cc1 [drawing 23]
[1]; systemic dose 1.0 mg/kg
  % Survival: 100%
  % Efficacy, Cell % Inhibition: 51%
  % Efficacy, Protein % Inhibition: 13%

## O=C(Nc1c(Cl)cncc1Cl)c1ccc(OC(F)F)c(OCC2CC2)c1 [roflumilast]
PMBC TNF
  IC50: 1.8 nM
